Source: patent US7968577B2 (Bristol-Myers Squibb Company, priority 2006, dated 2011)

Test system: AP-1 induced transcriptional activity
Assay: Cellular Transrepressional Assay: AP-1 luciferase reporter in PMA-activated A549 cells
Format: cell-based
Conditions: for Emax: A549, 7 h, read-out: AP-1 Max % inh (Cellular Transrepression Assay)
Method: Cellular Transrepressional Assay
To measure the ability of test molecules to inhibit AP-1 induced transcriptional activity we utilized an A549 cell which was stably transfected with a plasmid containing 7× AP-1 DNA binding sites (pAP-1-Luc plasmid, Stratagene Co. La Jolla, Calif.) followed by the gene for luciferase. Cells were activated with 10 ng/ml of […] (PMA) plus or minus test molecules for 7 hours. After 7 hours a luciferase reagent was added to measure luciferase enzymatic activity in the cell. After a 10 minute incubation of luciferase reagent with cells, luminescence was measured in a TopCount luminescence counter. Repression of AP-1 activity was calculated as the percentage decrease in the signal induced by PMA alone. Test molecules were analyzed in the concentration range from 0.1 nM to 40 μM. EC50s were determined by using standard curve fitting methods such as Excel fit (Microsoft Co.).

[1] = Homo sapiens, maximum inhibition, Cellular Transrepression Assay
[2] = Homo sapiens, A549, Cellular Transrepression Assay

Row | SMILES | Emax [1] [%] | EC50 [2] [nM] | EC50 (Cellular Transrepression Assay) [nM] | AP-1 Max % inh (Cellular Transrepression Assay) (maximum inhibition, Cellular Transrepression Assay) [%]
1 | CC(C)(C(=O)Nc1nncs1)[C@@H](c1ccccc1)c1ccc(O)cc1 [Example 339, (3S)-3-(4-hydroxyphenyl)-2,2-dimethyl-3-phenyl-N-1,3,4-thiadiazol-2-ylpropanamide] | 60.8 | 30.5 | – | –
2 | CC(C)(C(=O)Nc1nncs1)[C@H](c1ccccc1)c1ccc(O)cc1 [Example 340, (3R)-3-(4-hydroxyphenyl)-2,2-dimethyl-3-phenyl-N-1,3,4-thiadiazol-2-ylpropanamide] | 57 | 90.3 | – | –
3 | CC(C)(C(=O)Nc1nccs1)C(c1ccccc1)c1ccc(O)c(F)c1 (centres unmarked) [Example 345, 3-(3-fluoro-4-hydroxyphenyl)-2,2-dimethyl-3-phenyl-N-1,3-thiazol-2-ylpropanamide] | 68.1 | – | 35.2 | –
4 | CC(C)(C(=O)Nc1nccs1)C(c1ccccc1)c1ccc(O)c(F)c1 (centres unmarked) [Example 347, 3-(3-fluoro-4-hydroxyphenyl)-2,2-dimethyl-3-phenyl-N-1,3-thiazol-2-ylpropanamide] | – | – | 10.8 | 55.26
5 | CC(C)(C(=O)Nc1nncs1)C(c1ccccc1)c1ccc(O)c(F)c1 (centres unmarked) [Example 348, 3-(3-fluoro-4-hydroxyphenyl)-2,2-dimethyl-3-phenyl-N-1,3,4-thiadiazol-2-ylpropanamide] | 54 | 120 | – | –
6 | CC(C)(C(=O)Nc1nccs1)[C@@H](c1ccccc1)c1ccc(O)c(Br)c1 [Example 350, (3S)-3-(3-bromo-4-hydroxyphenyl)-2,2-dimethyl-3-phenyl-N-1,3-thiazol-2-ylpropanamide] | 81.8 | 15 | – | –
7 | CC(C)(C(=O)Nc1nncs1)[C@@H](c1ccccc1)c1ccc(O)c(Br)c1 [Example 351, (3S)-3-(3-bromo-4-hydroxyphenyl)-2,2-dimethyl-3-phenyl-N-1,3,4-thiadiazol-2-ylpropanamide] | 66 | 16.4 | – | –
8 | COc1ccc(Cc2csc(NC(=O)C(C)(C)C(c3ccccc3)c3ccc(O)cc3)n2)cc1 (centres unmarked) [Example 352] | 61.7 | 118 | – | –
9 | CC(C)(C(=O)Nc1nc(Cc2ccc(-c3ccncc3)cc2)cs1)C(c1ccccc1)c1ccc(O)cc1 (centres unmarked) [Example 353, 3-(4-hydroxyphenyl)-2,2-dimethyl-3-phenyl-N-(4-((4-(4-pyridinyl)phenyl)methyl)-1,3-thiazol-2-yl)propanamide] | 77.8 | 100 | – | –
10 | CC(C)(C(=O)Nc1nc(Cc2ccc(-c3ccncc3)cc2)cs1)[C@@H](c1ccccc1)c1ccc(O)cc1 [Example 354, 3-(4-hydroxyphenyl)-2,2-dimethyl-3-phenyl-N-(4-((4-(4-pyridinyl)phenyl)methyl)-1,3-thiazol-2-yl)propanamide] | 71.8 | 158 | – | –
11 | CC(C)(C(=O)Nc1nc(Cc2ccc(-c3ccncc3)cc2)cs1)C(c1ccc(O)cc1)c1ccc(O)cc1 [Example 356] | 61.1 | 736 | – | –
12 | CC(C)(C(=O)Nc1nc(Cc2ccc(-c3ccncc3)cc2)cs1)C(c1ccccc1)c1cccc(O)c1 (centres unmarked) [Example 357] | 73.7 | 144 | – | –
13 | CC(C)(C(=O)Nc1nccs1)[C@@H](c1ccccc1)c1ccc(O)c(C#N)c1 [Example 359, (3S)-3-(3-Cyano-4-hydroxyphenyl)-2,2-dimethyl-3-phenyl-N-1,3-thiazol-2-ylpropanamide] | 65.2 | 278 | – | –
14 | CC(=O)Oc1ccc([C@H](c2ccccc2)C(C)(C)C(=O)Nc2nccs2)cc1 [Example 361, 4-((1S)-2,2-dimethyl-3-oxo-1-phenyl-3-(1,3-thiazol-2-ylamino)propyl)phenyl acetate] | 36.4 | 13.3 | – | –
15 | CC(C)(C(=O)Nc1nccs1)[C@@H](c1ccccc1)c1ccc(OC(=O)c2ccco2)cc1 [Example 362, 4-((1S)-2,2-dimethyl-3-oxo-1-phenyl-3-(1,3-thiazol-2-ylamino)propyl)phenyl 2-furancarboxylate] | 33.4 | 16.6 | – | –
16 | CC(C)(C(=O)Nc1nccs1)[C@@H](c1ccccc1)c1ccc(OC(=O)c2ccoc2)cc1 [Example 364, 4-((1S)-2,2-dimethyl-3-oxo-1-phenyl-3-(1,3-thiazol-2-ylamino)propyl)phenyl 3-furancarboxylate] | 39.1 | 184 | – | –
17 | CC(C)(C(=O)Nc1nccs1)[C@@H](c1ccccc1)c1ccc(OC(=O)C2CCCO2)cc1 (stereo partly drawn) [Example 366, 4-((1S)-2,2-dimethyl-3-oxo-1-phenyl-3-(1,3-thiazol-2-ylamino)propyl)phenyl tetrahydro-2-furancarboxylate] | 32.6 | 20 | – | –

Row | SMILES | Emax [1] [%] | EC50 [2] [nM] | EC50 (Cellular Transrepression Assay) [nM] | AP-1 Max % inh (Cellular Transrepression Assay) (maximum inhibition, Cellular Transrepression Assay) [%]
18 | CC(=O)c1ccc(C(c2ccccc2)C(C)(C)C(=O)Nc2nncs2)cc1 (centres unmarked) [Example 369, 3-(4-acetylphenyl)-2,2-dimethyl-3-phenyl-N-1,3,4-thiadiazol-2-ylpropanamide] | 34.9 | 819 | – | –
19 | COc1ccc(-c2ccc(C(c3ccccc3)C(C)(C)C(=O)Nc3nccs3)cc2)cc1 (centres unmarked) [Example 374, 2,2-Dimethyl-3-(4′-(methyloxy)-4-biphenylyl)-3-phenyl-N-1,3-thiazol-2-ylpropanamide] | 39.7 | 121 | – | –
20 | COc1ccc(-c2ccc(C(c3ccccc3)C(C)(C)C(=O)Nc3nncs3)cc2)cc1 (centres unmarked) [Example 378, 2,2-dimethyl-3-(4′-(methyloxy)-4-biphenylyl)-3-phenyl-N-1,3,4-thiadiazol-2-ylpropanamide] | 26.2 | 894 | – | –
21 | CC(C)Oc1ccc(-c2ccc(C(c3ccccc3)C(C)(C)C(=O)Nc3nncs3)cc2)cc1 (centres unmarked) [Example 382, 2,2-dimethyl-3-(4′-((1-methylethyl)oxy)-4-biphenylyl)-3-phenyl-N-1,3,4-thiadiazol-2-ylpropanamide] | 40.1 | 28.1 | – | –
22 | CC(C)CC(c1ccc(-c2ccc(OC(C)C)cc2)cc1)C(C)(C)C(=O)Nc1nncs1 (centres unmarked) [Example 395, 2,2,5-trimethyl-3-(4′-((1-methylethyl)oxy)-4-biphenylyl)-N-1,3,4-thiadiazol-2-ylhexanamide] | 32.5 | 13.4 | – | –
23 | CC(C)Cc1ccc(-c2ccc(C(CC(C)C)C(C)(C)C(=O)Nc3nccs3)cc2)cc1 (centres unmarked) [Example 396, 2,2,5-trimethyl-3-(4′-(2-methylpropyl)-4-biphenylyl)-N-1,3-thiazol-2-ylhexanamide] | 31.5 | 227 | – | –
24 | CCCc1ccc(-c2ccc(C(CC(C)C)C(C)(C)C(=O)Nc3nccs3)cc2)cc1 (centres unmarked) [Example 398, 2,2,5-trimethyl-3-(4′-propyl-4-biphenylyl)-N-1,3-thiazol-2-ylhexanamide] | 28.2 | 70 | – | –
25 | CC(C)CC(c1ccc(-c2ccc(OC(C)C)cc2)cc1)C(C)(C)C(=O)Nc1nccs1 (centres unmarked) [Example 400, 2,2,5-trimethyl-3-(4′-((1-methylethyl)oxy)-4-biphenylyl)-N-1,3-thiazol-2-ylhexanamide] | 46.1 | 267 | – | –
26 | CC(C)(C(=O)Nc1nncs1)C(c1ccccc1)c1ccc(-c2ccc(C(=O)N3CCOCC3)cc2)cc1 (centres unmarked) [Example 401, 2,2-dimethyl-3-(4′-(4-morpholinylcarbonyl)-4-biphenylyl)-3-phenyl-N-1,3,4-thiadiazol-2-ylpropanamide] | 47 | 13.3 | – | –
27 | CC(C)(C(=O)Nc1nncs1)C(c1ccccc1)c1ccc(-c2ccccc2)cc1 (centres unmarked) [Example 402, 3-(4-biphenylyl)-2,2-dimethyl-3-phenyl-N-1,3,4-thiadiazol-2-ylpropanamide] | 26.5 | 7.9 | – | –
28 | CC(C)(C(=O)Nc1nncs1)C(c1ccccc1)c1ccc(-c2ccc(Cl)cc2)cc1 (centres unmarked) [Example 403, 3-(4′-chloro-4-biphenylyl)-2,2-dimethyl-3-phenyl-N-1,3,4-thiadiazol-2-ylpropanamide] | 24.9 | 3.03 | – | –
29 | CC(C)(C(=O)Nc1nncs1)C(c1ccccc1)c1ccc(-c2ccc(-c3ccccc3)cc2)cc1 (centres unmarked) [Example 404, 2,2-dimethyl-3-phenyl-3-(1,1′:4′,1″- terphenyl-4-yl)-N-1,3,4-thiadiazol-2-ylpropanamide] | 21.9 | 9.57 | – | –
30 | CC(C)(C(=O)Nc1nncs1)C(c1ccccc1)c1ccc(-c2ccc(OC(F)(F)F)cc2)cc1 (centres unmarked) [Example 405, 2,2-dimethyl-3-phenyl-N-1,3,4-thiadiazol-2-yl-3-(4′-(trifluoromethoxy)-4-biphenylyl)propanamide] | 35.2 | 24.6 | – | –
31 | CC(=O)c1ccc(-c2ccc(C(c3ccccc3)C(C)(C)C(=O)Nc3nncs3)cc2)cc1 (centres unmarked) [Example 406, 3-(4′-acetyl-4-biphenylyl)-2,2-dimethyl-3-phenyl-N-1,3,4-thiadiazol-2-ylpropanamide] | 29.4 | 39 | – | –
32 | CCc1ccc(-c2ccc(C(c3ccccc3)C(C)(C)C(=O)Nc3nncs3)cc2)cc1 (centres unmarked) [Example 407, 3-(4′-ethyl-4-biphenylyl)-2,2-dimethyl-3-phenyl-N-1,3,4-thiadiazol-2-ylpropanamide] | 37.5 | 14.9 | – | –
33 | COCc1ccc(-c2ccc(C(c3ccccc3)C(C)(C)C(=O)Nc3nncs3)cc2)cc1 (centres unmarked) [Example 408, 3-(4′-(methoxymethyl)-4-biphenylyl)-2,2-dimethyl-3-phenyl-N-1,3,4-thiadiazol-2-ylpropanamide] | 24.9 | 39.8 | – | –
34 | CC(C)c1ccc(-c2ccc(C(c3ccccc3)C(C)(C)C(=O)Nc3nncs3)cc2)cc1 (centres unmarked) [Example 422, 3-(4′-isopropyl-4-biphenylyl)-2,2-dimethyl-3-phenyl-N-1,3,4-thiadiazol-2-ylpropanamide] | 33.7 | 2.7 | – | –
